The record followed here is US8575189B2, “Tacrolimus preparation for external applications” (Takata Seiyaku Co., Ltd., priority 2008, dated 2013).

The series is described as follows: Solubility of tacrolimus in triacetin. The format is physicochemical. Particulars: free form, in triacetin at 25° C. The protocol: [drawing 2] (chemical name: glycerin triacetate). The properties of triacetin are described in Iyakuhin Tenkabutsu Kikaku 2003 and Iyakuhin Tenkabutsu Jiten 2007 (Yakuji Nippo), which are incorporated herein by reference. Tacrolimus in a free form may dissolve in triacetin at 25° C. in the ratio of about 12.5 g/100 g. Preferably, the external preparation of the present invention comprises triacetin at 0.1 to 30% by weight, more preferably 1.0 to 20% by weight, still more preferably 3.0 to 6.0% by weight, most preferably 4.0 to 5.0% by weight for the total amount of the preparation.

In the case of “17-aryl-1,14-dihydroxy-12-[2-(4-hydroxy-3-methoxycyclohexyl)-1-methylbinyl]-23,25-dimethoxy-13,19,21,27-tetramethyl-11,28-dioxa-4-azatricyclo [22.3.1.04, 9] octacos-18-en-2,3,10,16-tetraone [Tacrolimus]”, the “dissolve in triacetin (ratio)” value is listed as “about 12.5 g/100 g”.
